What was measured:
Mus musculus = assay: Tested for the antagonism of bicuculline -induced convulsions in female mice intraperitoneally; type: functional; conditions: ip, read-out: ID50 (the source's name)
[1] = target: GABA-A receptor; anion channel; assay: Displacement of [3H]- muscimol in cerebellar tissue of male rats
Rattus norvegicus = organism: Rattus norvegicus; assay: Tested for its GABA agonistic activity against spontaneous firing in explants from cerebellum of 2-4 day old rats; type: functional

Row | Compound | ED50 (Mus musculus) | IC50 [1] | Decrease of spontaneous firing rate (Rattus norvegicus)
1 | O=C1NOC2CNCCC12 (cis isomer) | > 56 mg/kg | > 1000 nM | 
2 | NCc1cc(O)no1 [MUSCIMOL] | 0.76 mg/kg | 3 nM | >=1e-06 M
3 | Oc1noc2c1CCNC2 [GABOXADOL] | 1.9 mg/kg |  | 

— ChEMBL document CHEMBL1122920, “Synthesis and pharmacological evaluation of cis-2,3,3a,4,5,6,7,7a-octahydro-3-oxoisoxazolo[5,4-c]pyridine: a structural analogue of the GABA agonist THIP” (J Med Chem, 1985)
